Laboratory results as given in patent US20240409528A1, “BINDERS OF CEREBLON AND METHODS OF USE THEREOF” (DANA-FARBER CANCER INSTITUTE, INC., priority 2021, published 2024).
≈ marks a conversion by molar mass, not a printed value. Read-outs that look alike come from different tables or passages of the source. Values belong to the molecule of their own block, whether it stands above or below them.

How the values were obtained:
[1] = Human hepatocyte (Hhep) stability; format: in vitro ADME; conditions: human hepatocytes
Method: (§1) The stability of compounds was assessed in human plasma, human liver microsomes (HLM) and human hepatocytes (Hhep) using procedures previously published (Kong el al., ACS Med Chem Lett 12:1861-1865 (2021)). […] HLM stability T1/2 compound 1: >145 min. Hhep stability Tin compound 1: >217 min.

Kinetic solubility = format: physicochemical; conditions: kinetic from dmso stock
Caco-2 permeability = format: in vitro ADME; conditions: human
[2] = Human liver microsome (HLM) stability; format: in vitro ADME; conditions: human liver microsomes
Method: as §1

hsCRBN-DDB1 complex [3] = biological target: T1, hsCRBN-DDB1 complex (Homo sapiens, UniProt Q96SW2); assay: Intact LC-MS of CRBN-DDB1 complex (covalent labeling); format: binding; conditions: for adduct formation with CRBN (intact MS): equimolar compound, room temperature
Method: After injecting 5 μg, proteins were desalted for four min on column with 100% A and then eluted with an HPLC gradient (0-100% B in 1 min; A=0.2 M acetic acid in water; B=0.2 M acetic acid in acetonitrile). The mass spectrometer was programmed to acquire full scan mass spectra (m/z 300-2000) in profile mode (spray voltage=4.5 kV). Mass spectra were deconvoluted using MagTran software version 1.03b2.

IKZF1 = assay: Inhibition of IKZF1 degradation by lenalidomide, Western blot in MOLT4 cells; conditions: 1 μM compound 2 hr pre-treatment, then 1 μM lenalidomide 5 hours
PFKFB4 = biological target: T2, PFKFB4 (Homo sapiens, UniProt Q16877); assay: Mass spectrometry proteomics, relative protein abundance in MOLT4 cells (PFKFB4); format: cell-based; conditions: 1 μM compound, 5 hours
T2 construct: endogenous in cells; host or cells: MOLT4

GSPT1 = biological target: T3, GSPT1 (Homo sapiens, UniProt P15170); assay: Mass spectrometry proteomics, relative protein abundance in MOLT4 cells (GSPT1); format: cell-based; conditions: 1 μM compound, 5 hours
T3 construct: endogenous in cells; host or cells: MOLT4

hsCRBN-DDB1 complex [4] = biological target: T1, hsCRBN-DDB1 complex; assay: Peptide mapping CE-MS/MS, site of covalent modification; format: binding; conditions: trypsin digest
From the text: Peptides were resolved at 500 V/cm using an HR chip with a background electrolyte consisting of 50% acetonitrile with 1% formic acid. The mass spectrometer was operated in data dependent mode and the five most abundant ions in each MS scan (m/z 300-2000, 60K resolution, 3E6 target, 100 ms max fill time) were subjected to MS/MS (15K resolution, 1E5 target, 100 ms max fill time). […] Search parameters specified fixed vinylpyridine modification of cysteine, variable methionine oxidation, and variable modification of cysteine. Modified spectra were examined and figures prepared using mzStudio software.

RNF166 = biological target: T4, RNF166 (Homo sapiens, UniProt Q96A37); assay: Mass spectrometry proteomics, relative protein abundance in MOLT4 cells (RNF166); format: cell-based; conditions: 1 μM compound, 5 hours
T4 construct: endogenous in cells; host or cells: MOLT4
T4 sequence (Q96A37 1-237): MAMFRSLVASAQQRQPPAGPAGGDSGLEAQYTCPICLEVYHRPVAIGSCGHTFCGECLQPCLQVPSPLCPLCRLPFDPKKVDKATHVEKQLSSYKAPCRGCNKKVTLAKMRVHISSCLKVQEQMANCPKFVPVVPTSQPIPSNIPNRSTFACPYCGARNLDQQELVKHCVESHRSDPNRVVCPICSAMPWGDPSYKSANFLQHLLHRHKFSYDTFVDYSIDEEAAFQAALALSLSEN

NanoLuc-CRBN = biological target: T5, NanoLuc-CRBN (Homo sapiens, UniProt Q96SW2); assay: Cellular CRBN NanoBret Engagement Assay; format: cell-based
T5 construct: expressed in transfected cells; host or cells: HEK293T, lentiviral transduction, puromycin selection
Method: HEK293T cells were transduced with lentivirus and put under puromycin selection (5 μg/mL) for two weeks to produce a cell line stably expressing CRBN with N-terminally fused NanoLuc® luciferase (NanoLuc-CRBN). After antibiotic selection, cells were cultured in DMEM (Gibco, Life Technologies) supplemented with 10% FBS and 1 μg/mL puromycin to maintain stable NanoLuc®-CRBN expression. […] After 3-4 min, the trypsin was quenched with 5× volume DMEM media (Gibco, Life Technologies) with 10% FBS and cells were collected by centrifugation (1000 rpm, 5 min). The supernatant was removed by vacuum aspiration and the pellet was then resuspended in Opti-MEM™ without phenol red. The density of this cell suspension was determined by diluting the cells 1:1 with trypan blue, then counting using a Countess II (Thermo Fischer Scientific) and then diluted to the required volume at 2×10^5 viable cells/mL in Opti-MEM™ I (Gibco, Life Technologies). […] After plating, the assay plate was centrifuged (500×g, 5 min) and covered in aluminum foil. Compounds for testing were added to the plate using a D300e Digital Dispenser (HP) in duplicate 12-pt titrations from a 10 mM stock in DMSO, with DMSO normalized to 1% total volume. The plate was then placed in an incubator at 37° C., 5% CO2 for two hours. […] This was then added to each well (25 μL/well). The plate was read on a Pherastar FSX microplate reader with simultaneous dual emission capabilities to read 384-well plates at 450 and 520 nm. The NanoBRET™ ratio was calculated by dividing the signal at 520 nm by the signal at 450 nm for each sample. […] The NanoLuc® substrate and extracellular inhibitor were purchased as a kit from Promega Corporation and used as is from the box—Promega NanoBRET™ Nano-Glo® Substrate/Inhibitor; Promega Catalog number N2161 for 10,000 assay kit.

in vitro = conditions: human, plasma
[5] = HEK293T cells stably expressing NanoLuc-CRBN, 250 nM BODIPY-lenalidomide tracer, 2 h incubation, read-out: CRBN NanoBRET IC50

Compound: O=C1CCC(N2Cc3ccc(OS(=O)(=O)F)cc3C2=O)C(=O)N1 (stereo not drawn) [Compound 1, 2-(2,6-dioxopiperidin-3-yl)-3-oxoisoindolin-5-yl sulfurofluoridate]
Hhep stability Tin [1]: > 217 min
solubility kinetic (Kinetic solubility): 119 µM (≈ 40.7 µg/mL)
Papp (Caco-2 permeability): 29.5 ×10⁻⁶ cm/s
HLM stability T1/2 [2]: > 2.42 h

Compound: O=C1CCC(N2Cc3cc(OS(=O)(=O)F)ccc3C2=O)C(=O)N1 (stereo not drawn) [Compound 2, 2-(2,6-dioxopiperidin-3-yl)-1-oxoisoindolin-5-yl sulfurofluoridate]
adduct formation with CRBN (intact MS) (hsCRBN-DDB1 complex [3]): form an adduct with CRBN

Compound: O=C1CCC(N2Cc3ccc(S(=O)(=O)F)cc3C2=O)C(=O)N1 (stereo not drawn) [Compound 3, 2-(2,6-dioxopiperidin-3-yl)-3-oxoisoindoline-5-sulfonyl fluoride]
mass shift of CRBN (Δmass) (hsCRBN-DDB1 complex [3]; 1 eq. compound, 4 hr): 307
adduct formation with CRBN (intact MS) (hsCRBN-DDB1 complex [3]): form an adduct with CRBN
inhibition of IKZF1 degradation by lenalidomide (IKZF1): clearly inhibits the degradation of IKZF1 by lenalidomide

Compound: O=C1CCC(N2Cc3cc(S(=O)(=O)F)ccc3C2=O)C(=O)N1 (stereo not drawn) [Compound 4, 2-(2,6-dioxopiperidin-3-yl)-1-oxoisoindoline-5-sulfonyl fluoride]
relative fold-change abundance of PFKFB4 (PFKFB4): clearly downregulated
relative fold-change abundance of GSPT1 (GSPT1): clearly downregulated
site of covalent labeling of CRBN (hsCRBN-DDB1 complex [4]): label His353
adduct formation with CRBN (intact MS) (hsCRBN-DDB1 complex [3]): form an adduct with CRBN
relative fold-change abundance of RNF166 (RNF166): clearly downregulated

Compound: C=CS(=O)(=O)c1ccc2c(c1)C(=O)N(C1CCC(=O)NC1=O)C2 (stereo not drawn) [Compound 5, 3-(1-oxo-6-(vinylsulfonyl)isoindolin-2-yl)piperidine-2,6-dione]
IC50 (NanoLuc-CRBN; [5]): 12.6 µM

Compound: C=CS(=O)(=O)Nc1ccc2c(c1)C(=O)N(C1CCC(=O)NC1=O)C2 (stereo not drawn) [Compound 6, N-(2-(2,6-dioxopiperidin-3-yl)-3-oxoisoindolin-5-yl)ethenesulfonamide]
IC50 (NanoLuc-CRBN; [5]): 0.54 µM

Compound: Nc1cc(OS(=O)(=O)F)cc2c1CN(C1CCC(=O)NC1=O)C2=O (stereo not drawn) [Compound 10, 4-amino-2-(2,6-dioxo-3-piperidyl)-6-fluorosulfonyloxy-1-oxo-isoindoline]
IC50 (NanoLuc-CRBN): 0.89 µM

The next lines start with the values.

Human plasma stability T1/2: > 4.82 h
Compound: Cc1cnn(S(=O)(=O)c2ccc3c(c2)C(=O)N(C2CCC(=O)NC2=O)C3)c1 (stereo not drawn) [Compound 11, 3-(6-((4-methyl-1H-pyrazol-1-yl)sulfonyl)-1-oxoisoindolin-2-yl)piperidine-2,6-dione]

Human plasma stability T1/2: 1.53 h
Compound: O=C1CCC(N2Cc3ccc(S(=O)(=O)n4cc(F)cn4)cc3C2=O)C(=O)N1 (stereo not drawn) [Compound 12, 3-(6-((4-fluoro-1H-pyrazol-1-yl)sulfonyl)-1-oxoisoindolin-2-yl)piperidine-2,6-dione]

Human plasma stability T1/2: 0.167 h
Compound: O=C1CCC(N2Cc3ccc(S(=O)(=O)n4cc(C(F)(F)F)cn4)cc3C2=O)C(=O)N1 (stereo not drawn) [Compound 13, 3-(1-oxo-6-((4-(trifluoromethyl)-1H-pyrazol-1-yl)sulfonyl)isoindolin-2-yl)piperidine-2,6-dione]

Human plasma stability T1/2: 0.108 h
Compound: O=C1CCC(N2Cc3ccc(S(=O)(=O)n4cnc(C(F)(F)F)c4)cc3C2=O)C(=O)N1 (stereo not drawn) [Compound 14, 3-(1-oxo-6-((4-(trifluoromethyl)-1H-imidazol-1-yl)sulfonyl)isoindolin-2-yl)piperidine-2,6-dione]

Human plasma stability T1/2: 1.92 h
Compound: O=C1CCC(N2Cc3ccc(S(=O)(=O)n4ccc(F)n4)cc3C2=O)C(=O)N1 (stereo not drawn) [Compound 15, 3-(6-((3-fluoro-1H-pyrazol-1-yl)sulfonyl)-1-oxoisoindolin-2-yl)piperidine-2,6-dione]

Human plasma stability T1/2: 0.317 h
Compound: O=C1CCC(N2Cc3ccc(S(=O)(=O)n4cnc(F)c4)cc3C2=O)C(=O)N1 (stereo not drawn) [Compound 17, 3-(6-((4-fluoro-1H-imidazol-1-yl)sulfonyl)-1-oxoisoindolin-2-yl)piperidine-2,6-dione]

Human plasma stability T1/2: 0.233 h
Compound: O=C1CCC(N2Cc3ccc(S(=O)(=O)n4ccc(C(F)(F)F)n4)cc3C2=O)C(=O)N1 (stereo not drawn) [Compound 18, 3-(1-oxo-6-((3-(trifluoromethyl)-1H-pyrazol-1-yl)sulfonyl)isoindolin-2-yl)piperidine-2,6-dione]

Human plasma stability T1/2: 3.98 h
Compound: Cc1cn(S(=O)(=O)c2ccc3c(c2)C(=O)N(C2CCC(=O)NC2=O)C3)c(=O)[nH]c1=O (stereo not drawn) [Compound 19, 1-((2-(2,6-dioxopiperidin-3-yl)-3-oxoisoindolin-5-yl)sulfonyl)-5-methylpyrimidine-2,4(1H,3H)-dione]

IC50 (NanoLuc-CRBN; [5]): 8.63 µM
half-life (in vitro): > 4.82 h
Compound: Nc1cn(S(=O)(=O)c2ccc3c(c2)C(=O)N(C2CCC(=O)NC2=O)C3)c(=O)[nH]c1=O (stereo not drawn) [Compound 20, 5-amino-1-((2-(2,6-dioxopiperidin-3-yl)-3-oxoisoindolin-5-yl)sulfonyl)pyrimidine-2,4(1H,3H)-dione]

Human plasma stability T1/2: 2.72 h
Compound: O=C1CCC(N2Cc3ccc(S(=O)(=O)n4ccc(=O)[nH]c4=O)cc3C2=O)C(=O)N1 (stereo not drawn) [Compound 21, 1-((2-(2,6-dioxopiperidin-3-yl)-3-oxoisoindolin-5-yl)sulfonyl)pyrimidine-2,4(1H,3H)-dione]
